Reference: doi:10.1101/2024.08.19.608619, “Discovery of potent SARS-CoV-2 nsp3 macrodomain inhibitors uncovers lack of translation to cellular antiviral response” (bioRxiv, 2024)
Values joined by “and” are separate entries in the source; they are usually repeats but may differ in a detail not shown here. Equal values may be shown once.

What follows are molecules tested on Vero E6/TMPRSS2 (assay: Vero E6/TMPRSS2 cytotoxicity with P-gp inhibitor). Conditions: not given.
Format: cell-based
Source text: Supplement media-1.zip/Cytotoxicity.csv, table | column: cc10; cc50; perc_min_measured; perc_max_measured

| Compound | CC50 [µM] | cc10 [µM] |
| --- | --- | --- |
| CNCc1cc(-c2cc3c(N[C@@H](c4ccc5c(c4)S(=O)(=O)CCC5)C(C)C)ncnc3[nH]2)co1 [ASAP-0011176] | > 5 | > 5.0 |

Same assay, conditions: highest measured response of the dose series

| Compound | perc_max_measured [%] |
| --- | --- |
| CNCc1cc(-c2cc3c(N[C@@H](c4ccc5c(c4)S(=O)(=O)CCC5)C(C)C)ncnc3[nH]2)co1 [ASAP-0011176] | 117.999 |

Same assay, conditions: lowest measured response of the dose series

| Compound | perc_min_measured [%] |
| --- | --- |
| CNCc1cc(-c2cc3c(N[C@@H](c4ccc5c(c4)S(=O)(=O)CCC5)C(C)C)ncnc3[nH]2)co1 [ASAP-0011176] | 102.841 |

The molecules below were run against T1, beta1 (h) (Homo sapiens, UniProt P08588) (assay: In vitro CEREP profiling, beta1 (h) (agonist radioligand)). Conditions: test compound 10 uM.
T1 construct: purchased Eurofins Cerep (SafetyScreen44), recognised from the panel format
Format: binding
Source text: (§1) Supplement media-1.zip/Safety_Panel_Profile.csv, table | column: perc_inhibition

T1 sequence (P08588 whole entry): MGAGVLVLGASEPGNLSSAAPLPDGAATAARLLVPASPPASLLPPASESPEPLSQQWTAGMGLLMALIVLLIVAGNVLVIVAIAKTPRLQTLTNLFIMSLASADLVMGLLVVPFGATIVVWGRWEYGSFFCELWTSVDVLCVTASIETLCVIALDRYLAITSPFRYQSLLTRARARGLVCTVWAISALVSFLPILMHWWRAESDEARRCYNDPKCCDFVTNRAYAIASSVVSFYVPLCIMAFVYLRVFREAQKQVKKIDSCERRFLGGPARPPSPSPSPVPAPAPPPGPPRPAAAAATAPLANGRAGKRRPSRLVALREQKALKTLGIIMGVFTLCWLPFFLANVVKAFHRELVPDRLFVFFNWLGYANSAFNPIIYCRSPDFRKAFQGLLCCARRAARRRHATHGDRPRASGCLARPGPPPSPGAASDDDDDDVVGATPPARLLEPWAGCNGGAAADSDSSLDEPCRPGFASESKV

| Compound | perc_inhibition (% inhibition of the binding of a ligand specific for each target) [%] |
| --- | --- |
| CNCc1cc(-c2cc3c(N[C@@H](c4ccc5c(c4)S(=O)(=O)CCC5)C(C)C)ncnc3[nH]2)co1 [ASAP-0011176] | -4 |

Each molecule was assayed against T2, PDE3A (h) (Homo sapiens, UniProt Q14432) (assay: In vitro CEREP profiling, PDE3A (h)). Conditions: test compound concentration 10 uM; Enzyme and Cell-based assays.
T2 construct: purchased Eurofins Cerep (SafetyScreen44), recognised from the panel format
Format: biochemical
Source text: as §1

T2 sequence (Q14432 whole entry): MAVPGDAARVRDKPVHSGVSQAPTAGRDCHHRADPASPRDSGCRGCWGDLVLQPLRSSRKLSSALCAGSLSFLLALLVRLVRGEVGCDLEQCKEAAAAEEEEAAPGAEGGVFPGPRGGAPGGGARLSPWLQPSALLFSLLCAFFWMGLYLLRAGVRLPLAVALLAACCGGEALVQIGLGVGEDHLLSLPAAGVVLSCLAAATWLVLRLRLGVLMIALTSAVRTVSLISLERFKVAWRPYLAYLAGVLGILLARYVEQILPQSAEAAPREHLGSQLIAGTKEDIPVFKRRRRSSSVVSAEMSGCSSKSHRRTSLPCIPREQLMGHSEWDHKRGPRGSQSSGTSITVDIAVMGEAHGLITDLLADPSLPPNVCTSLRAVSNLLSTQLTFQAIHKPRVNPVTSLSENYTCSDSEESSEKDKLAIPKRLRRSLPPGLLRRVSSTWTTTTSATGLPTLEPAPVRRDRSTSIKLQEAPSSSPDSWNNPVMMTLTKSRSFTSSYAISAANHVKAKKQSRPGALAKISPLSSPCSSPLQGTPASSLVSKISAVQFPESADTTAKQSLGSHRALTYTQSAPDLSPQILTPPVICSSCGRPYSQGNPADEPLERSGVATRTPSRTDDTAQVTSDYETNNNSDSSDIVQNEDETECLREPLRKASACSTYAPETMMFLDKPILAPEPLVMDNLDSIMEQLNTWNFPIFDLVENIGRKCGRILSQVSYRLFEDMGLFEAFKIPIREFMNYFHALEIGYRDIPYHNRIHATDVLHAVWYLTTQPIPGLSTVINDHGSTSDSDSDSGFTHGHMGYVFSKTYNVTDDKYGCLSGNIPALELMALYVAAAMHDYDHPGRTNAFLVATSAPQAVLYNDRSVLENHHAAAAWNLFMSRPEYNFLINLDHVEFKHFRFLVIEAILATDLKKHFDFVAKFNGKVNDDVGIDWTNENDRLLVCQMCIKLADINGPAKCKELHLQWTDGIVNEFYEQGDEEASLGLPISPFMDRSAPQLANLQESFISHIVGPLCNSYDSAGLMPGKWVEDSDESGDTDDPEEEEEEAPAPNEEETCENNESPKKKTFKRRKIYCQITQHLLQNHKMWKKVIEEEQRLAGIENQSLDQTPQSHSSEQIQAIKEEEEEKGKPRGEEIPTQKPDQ

| Compound | perc_inhibition: % inhibition of control enzyme activity, PDE3A (h) [%] |
| --- | --- |
| CNCc1cc(-c2cc3c(N[C@@H](c4ccc5c(c4)S(=O)(=O)CCC5)C(C)C)ncnc3[nH]2)co1 [ASAP-0011176] | -5 |

Each molecule was assayed against T3, PDE4D2 (h) (Homo sapiens, UniProt Q08499) (assay: In vitro CEREP profiling, PDE4D2 (h)). Conditions: test compound concentration 10 uM; Enzyme and Cell-based assays.
T3 construct: purchased Eurofins Cerep (SafetyScreen44), recognised from the panel format
Format: biochemical
Source text: as §1

T3 sequence (Q08499 303-809): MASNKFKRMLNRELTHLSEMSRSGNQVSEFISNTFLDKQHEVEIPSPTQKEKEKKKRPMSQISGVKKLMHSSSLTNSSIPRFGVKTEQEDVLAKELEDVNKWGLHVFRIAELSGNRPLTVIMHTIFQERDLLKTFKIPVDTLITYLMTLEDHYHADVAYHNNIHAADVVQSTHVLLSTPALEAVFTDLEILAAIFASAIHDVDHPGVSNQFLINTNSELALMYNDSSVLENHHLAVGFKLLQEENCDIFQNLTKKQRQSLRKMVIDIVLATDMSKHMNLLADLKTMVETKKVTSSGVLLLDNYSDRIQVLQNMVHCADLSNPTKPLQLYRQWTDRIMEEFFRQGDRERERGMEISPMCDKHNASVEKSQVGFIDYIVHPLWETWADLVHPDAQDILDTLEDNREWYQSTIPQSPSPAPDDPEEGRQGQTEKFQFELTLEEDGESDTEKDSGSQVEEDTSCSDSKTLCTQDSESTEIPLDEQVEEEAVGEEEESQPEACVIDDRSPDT

| Compound | perc_inhibition: % inhibition of control enzyme activity, PDE4D2 (h) [%] |
| --- | --- |
| CNCc1cc(-c2cc3c(N[C@@H](c4ccc5c(c4)S(=O)(=O)CCC5)C(C)C)ncnc3[nH]2)co1 [ASAP-0011176] | 43 |

These molecules were tested against T4, Lck kinase (h) (Homo sapiens, UniProt P06239) (assay: In vitro CEREP profiling, Lck kinase (h)). Conditions: test compound concentration 10 uM; Enzyme and Cell-based assays.
T4 construct: purchased Eurofins Cerep (SafetyScreen44), recognised from the panel format
Format: biochemical
Source text: as §1

T4 sequence (P06239 whole entry): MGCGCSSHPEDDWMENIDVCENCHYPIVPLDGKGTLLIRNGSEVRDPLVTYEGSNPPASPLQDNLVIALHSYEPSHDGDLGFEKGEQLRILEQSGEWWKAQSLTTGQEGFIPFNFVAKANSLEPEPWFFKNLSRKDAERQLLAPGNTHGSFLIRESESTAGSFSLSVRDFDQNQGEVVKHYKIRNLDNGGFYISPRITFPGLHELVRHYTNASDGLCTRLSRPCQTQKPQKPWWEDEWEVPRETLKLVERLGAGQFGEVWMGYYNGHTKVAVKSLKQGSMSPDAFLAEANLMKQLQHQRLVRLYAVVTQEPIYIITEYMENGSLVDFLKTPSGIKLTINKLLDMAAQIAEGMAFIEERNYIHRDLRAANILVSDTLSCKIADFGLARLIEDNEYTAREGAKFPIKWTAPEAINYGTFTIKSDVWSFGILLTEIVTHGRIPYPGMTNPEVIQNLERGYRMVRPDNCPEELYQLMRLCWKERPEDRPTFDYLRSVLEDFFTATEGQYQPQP

| Compound | perc_inhibition: % inhibition of control enzyme activity, Lck kinase (h) [%] |
| --- | --- |
| CNCc1cc(-c2cc3c(N[C@@H](c4ccc5c(c4)S(=O)(=O)CCC5)C(C)C)ncnc3[nH]2)co1 [ASAP-0011176] | 68 |

What follows are molecules tested on Ca2+ channel (L, dihydropyridine site) (assay: In vitro CEREP profiling, Ca2+ channel (L, dihydropyridine site) (antagonist radioligand)). Conditions: test compound concentration 10 uM.
Format: binding
Source text: as §1

| Compound | perc_inhibition (% inhibition of the binding of a ligand specific for each target) [%] |
| --- | --- |
| CNCc1cc(-c2cc3c(N[C@@H](c4ccc5c(c4)S(=O)(=O)CCC5)C(C)C)ncnc3[nH]2)co1 [ASAP-0011176] | -3 |

These molecules were tested against T5, Potassium Channel hERG (human) (Homo sapiens, UniProt Q12809) (assay: In vitro CEREP profiling, Potassium Channel hERG (human)- [3H] Dofetilide). Conditions: test compound concentration 10 uM.
T5 construct: purchased Eurofins Cerep (SafetyScreen44), recognised from the panel format
Format: binding
Source text: as §1

T5 sequence (Q12809 whole entry): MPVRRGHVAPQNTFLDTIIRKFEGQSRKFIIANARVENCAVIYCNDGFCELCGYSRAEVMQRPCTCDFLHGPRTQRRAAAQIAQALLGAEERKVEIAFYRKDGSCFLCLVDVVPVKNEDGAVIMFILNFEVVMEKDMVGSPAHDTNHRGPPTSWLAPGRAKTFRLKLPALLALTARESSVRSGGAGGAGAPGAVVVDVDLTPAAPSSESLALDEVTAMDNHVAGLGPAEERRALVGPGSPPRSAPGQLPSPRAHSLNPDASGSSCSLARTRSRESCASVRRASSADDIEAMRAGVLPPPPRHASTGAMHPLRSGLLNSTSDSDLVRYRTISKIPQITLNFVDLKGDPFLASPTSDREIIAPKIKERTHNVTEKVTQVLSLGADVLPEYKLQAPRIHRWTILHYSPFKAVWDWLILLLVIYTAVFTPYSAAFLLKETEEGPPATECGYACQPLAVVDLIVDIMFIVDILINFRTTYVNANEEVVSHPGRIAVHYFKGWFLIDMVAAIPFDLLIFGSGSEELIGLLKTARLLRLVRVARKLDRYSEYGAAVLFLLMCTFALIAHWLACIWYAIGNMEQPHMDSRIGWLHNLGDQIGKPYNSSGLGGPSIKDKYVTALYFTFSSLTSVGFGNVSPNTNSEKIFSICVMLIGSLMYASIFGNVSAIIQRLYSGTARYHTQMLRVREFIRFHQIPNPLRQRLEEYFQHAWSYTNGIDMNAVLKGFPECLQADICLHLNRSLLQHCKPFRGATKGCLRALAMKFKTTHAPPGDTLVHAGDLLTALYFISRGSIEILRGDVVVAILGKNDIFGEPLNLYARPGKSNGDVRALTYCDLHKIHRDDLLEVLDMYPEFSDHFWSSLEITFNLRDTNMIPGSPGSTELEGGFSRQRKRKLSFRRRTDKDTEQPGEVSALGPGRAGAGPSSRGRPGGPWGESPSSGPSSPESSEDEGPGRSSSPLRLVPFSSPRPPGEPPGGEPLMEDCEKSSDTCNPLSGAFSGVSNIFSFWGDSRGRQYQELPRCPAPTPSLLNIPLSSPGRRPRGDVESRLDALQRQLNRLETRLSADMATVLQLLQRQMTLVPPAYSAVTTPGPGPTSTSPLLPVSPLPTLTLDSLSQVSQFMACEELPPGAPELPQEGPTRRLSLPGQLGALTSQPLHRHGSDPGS

| Compound | perc_inhibition (% inhibition of the binding of a ligand specific for each target) [%] |
| --- | --- |
| CNCc1cc(-c2cc3c(N[C@@H](c4ccc5c(c4)S(=O)(=O)CCC5)C(C)C)ncnc3[nH]2)co1 [ASAP-0011176] | 26 |

These molecules were tested against hERG (Homo sapiens, UniProt Q12809) (assay: In vitro hERG cardiotoxocity). Conditions: at top test concentration 30 uM.
Source text: Supplement media-1.zip/Cardiotoxicity.csv, table | column: ic50; perc_inhibition_top_conc

Sequence of hERG (Q12809 whole entry): as above

| Compound | perc_inhibition_top_conc [%] |
| --- | --- |
| CNCc1cc(-c2cc3c(N[C@@H](c4ccc5c(c4)S(=O)(=O)CCC5)C(C)C)ncnc3[nH]2)co1 [ASAP-0011176] | 26.0 |

Same assay, conditions: top test concentration 30 uM

| Compound | IC50 [µM] |
| --- | --- |
| CNCc1cc(-c2cc3c(N[C@@H](c4ccc5c(c4)S(=O)(=O)CCC5)C(C)C)ncnc3[nH]2)co1 [ASAP-0011176] | > 30 |

Each molecule was assayed on KV channel (assay: In vitro CEREP profiling, KV channel (antagonist radioligand)). Conditions: test compound concentration 10 uM.
Format: binding
Source text: as §1

| Compound | perc_inhibition (% inhibition of the binding of a ligand specific for each target) [%] |
| --- | --- |
| CNCc1cc(-c2cc3c(N[C@@H](c4ccc5c(c4)S(=O)(=O)CCC5)C(C)C)ncnc3[nH]2)co1 [ASAP-0011176] | 1 |

The molecules below were run on Na+ channel (site 2) (assay: In vitro CEREP profiling, Na+ channel (site 2) (antagonist radioligand)). Conditions: test compound concentration 10 uM.
Format: binding
Source text: as §1

| Compound | perc_inhibition (% inhibition of the binding of a ligand specific for each target) [%] |
| --- | --- |
| CNCc1cc(-c2cc3c(N[C@@H](c4ccc5c(c4)S(=O)(=O)CCC5)C(C)C)ncnc3[nH]2)co1 [ASAP-0011176] | 19 |

What follows are molecules tested on MERS-CoV (assay: microbe, parasite or virus in culture). Conditions: Vero E6/TMPRSS2 MERS-CoV antiviral effect with P-gp inhibitor; maximum measured response of dose series.
Format: cell-based

| Compound | perc_max_measured |
| --- | --- |
| CNCc1cc(-c2cc3c(N[C@@H](c4ccc5c(c4)S(=O)(=O)CCC5)C(C)C)ncnc3[nH]2)co1 [ASAP-0011176] | 108.298% and 134.469% |

Same assay, conditions: Vero E6/TMPRSS2 MERS-CoV antiviral effect with P-gp inhibitor; minimum measured response of dose series

| Compound | perc_min_measured |
| --- | --- |
| CNCc1cc(-c2cc3c(N[C@@H](c4ccc5c(c4)S(=O)(=O)CCC5)C(C)C)ncnc3[nH]2)co1 [ASAP-0011176] | 91.617% and 86.125% |

Same assay, conditions: Vero E6/TMPRSS2 MERS-CoV antiviral effect with P-gp inhibitor; read-out: ec50

| Compound | EC50 [µM] |
| --- | --- |
| CNCc1cc(-c2cc3c(N[C@@H](c4ccc5c(c4)S(=O)(=O)CCC5)C(C)C)ncnc3[nH]2)co1 [ASAP-0011176] | > 5 |

Same assay, conditions: Vero E6/TMPRSS2 MERS-CoV antiviral effect with P-gp inhibitor; read-out: ec90

| Compound | EC90 [µM] |
| --- | --- |
| CNCc1cc(-c2cc3c(N[C@@H](c4ccc5c(c4)S(=O)(=O)CCC5)C(C)C)ncnc3[nH]2)co1 [ASAP-0011176] | > 5 |
